pEC50: −log10 of the molar value. *1 amine or outer side, *2 acyl side, *3 side chain or, on linkers, in order; H or OH if unused. Where a SMILES comes first, the peptide text is derived from it. Bridges are numbered along the chain shown (N, C = ends). [ ]: non-standard residue; d: D form. The star is where a group is joined. C20 diacid = O=C(O)CCCCCCCCCCCCCCCCCCC(=O)*; γGlu = O=C(O)[C@H](CCC(=O)[*:2])N[*:1]; Hyp = O=C(O)[C@@H]1C[C@@H](O)CN1; NMeI = CC[C@H](C)[C@H](NC)C(=O)O; Aad = N[C@@H](CCCC(=O)O)C(=O)O; Orn = NCCC[C@H](N)C(=O)O; Sar = CNCC(=O)O
Experiments:
[1] = target: T1, human calcitonin receptor (hCTR2) (Homo sapiens, UniProt P30988); test: hCTR2 cAMP assay (AlphaScreen) in COS7 cells; assay type: cell-based; settings: cAMP induction, COS7 cells expressing hCTR2; Table 1; read-out: hCTR2 EC50
T1 construct: expressed in transfected cells
T1 sequence (P30988 25-474): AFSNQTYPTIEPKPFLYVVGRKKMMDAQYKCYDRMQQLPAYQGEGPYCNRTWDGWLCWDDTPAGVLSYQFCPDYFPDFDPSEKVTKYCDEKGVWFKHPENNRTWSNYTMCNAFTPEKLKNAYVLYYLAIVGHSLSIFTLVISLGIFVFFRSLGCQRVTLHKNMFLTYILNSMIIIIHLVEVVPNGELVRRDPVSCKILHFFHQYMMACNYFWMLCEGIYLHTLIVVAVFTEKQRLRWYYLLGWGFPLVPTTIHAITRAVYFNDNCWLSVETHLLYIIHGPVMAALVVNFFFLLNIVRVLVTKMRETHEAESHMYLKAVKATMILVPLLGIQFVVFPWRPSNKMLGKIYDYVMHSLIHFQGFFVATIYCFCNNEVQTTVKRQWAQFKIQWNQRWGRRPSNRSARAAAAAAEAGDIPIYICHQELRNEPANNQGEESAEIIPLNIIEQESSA
Summary of the method: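 cAMP induction, read by AlphaScreen after lysis, gives EC50 values via 4PL curve fitting. Peptides were applied at rising concentrations for 15 min at 37 °C, with IBMX and 0.1% casein in HEPES-buffered Tyrode pH 7.4, to COS7 cells (no endogenous RAMPs) stably expressing human CTR2.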

[2] = target: T2, human amylin receptor 3 (hAMYR3), hCTR2 co-expressed with hRAMP3 (Homo sapiens, UniProt O60896+P30988); test: hAMYR3 cAMP assay (AlphaScreen) in COS7 cells; assay type: cell-based; settings: cAMP induction, COS7 cells expressing hAMYR3; Table 1; read-out: hAMYR3 EC50
T2 construct: expressed in transfected cells
T2 sequence (P30988 25-474): T1 sequence (P30988 25-474)
T2 sequence (O60896 24-148 partner): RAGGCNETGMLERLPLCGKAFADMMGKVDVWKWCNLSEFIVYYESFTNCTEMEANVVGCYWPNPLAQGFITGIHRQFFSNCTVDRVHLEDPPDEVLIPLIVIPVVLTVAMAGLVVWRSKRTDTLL
Summary of the method: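 EC50 values derive from 4PL curve fits of cAMP (AlphaScreen) in lysates of RAMP-naive COS7 cells stably carrying hCTR2 plus hRAMP3. Peptide dilution series were applied for 15 min at 37 °C in pH 7.4 Tyrode buffer containing 100 µM IBMX and 0.1% casein.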

[3] = Assessment of physical stability (Thioflavin T fibrillation); assay type: physicochemical; set-up: key: FND = fibrillation not detected; FD = fibrillation detected; settings: 1 mg/ml, 40° C., ThT; for Fibrillation pH 4.0 (Ac): 50 mM acetate buffer pH 4.0, 96 hours; for Fibrillation pH 7.0 (His): 50 mM histidine buffer pH 7.0, 96 hours; for Fibrillation pH 7.0 (Phos.): 50 mM phosphate buffer pH 7.0, 96 hours
Summary of the method: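 Fibrillation lag-time, in hours, taken where regressions of the initial stable phase and the growth phase intersect. ThT (40 μM) fluorescence monitored at 40 °C for 96 h, 10-min reads each preceded by 300 s mixing. Peptide at 1 mg/ml in 50 mM buffers: phosphate or histidine pH 7.0, acetate pH 4.0.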

[4] = Assessment of chemical stability (RP-HPLC normalized purity); assay type: physicochemical; settings: 7 days, 40° C., Table 1; for Normalized purity after 7 days, 40° C., pH 4: pH 4, 0.2 mg/ml; for Normalized purity after 7 days, 40° C., pH 6: pH 6, 0.2 mg/ml; for Normalized purity after 7 days, 40° C., pH 7.5: pH 7.5, 0.2 mg/ml; for Normalized purity after 7 days, 40° C., pH 9: pH 9, 0.2 mg/ml
Summary of the method: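 Purity after 7 days at 40° C is expressed relative to T=0 (set to 100) for each pH. Samples at 0.2 mg/ml, pH 4, 6, 7.5 or 9, analyzed by RP-HPLC with UV 220 nm on C8 (ammonium formate) or C18 (TFA) gradients.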

Row | pEC50 [1] | pEC50 [2] | Fibrillation pH 4.0 (Ac) [3] | Fibrillation pH 7.0 (His) [3] | Fibrillation pH 7.0 (Phos.) [3] | Normalized purity after 7 days, 40° C., pH 4 [4] | Normalized purity after 7 days, 40° C., pH 6 [4] | Normalized purity after 7 days, 40° C., pH 7.5 [4] | Normalized purity after 7 days, 40° C., pH 9 [4] | SMILES
1 | 10.30 | 9.96 | FND | FND | FND | A (A = >90%) | A (A = >90%) | B (B = 70-90%) | B (B = 70-90%) | CC[C@H](C)[C@@H](C(=O)N[C@@H](CC(C)C)C(=O)N[C@@H](CO)C(=O)N[C@@H](CO)C(=O)N[C@H](C(=O)N[C@@H](CCC(=O)O)C(=O)N[C@H](C(=O)NCC(=O)N[C@@H](CO)C(=O)N[C@@H](CO)C(=O)N[C@H](C(=O)N1CCC[C@H]1C(N)=O)[C@@H](C)O)C(C)C)[C@@H](C)O)N(C)C(=O)[C@H](C)NC(=O)CN(C)C(=O)[C@H](Cc1ccccc1)NC(=O)[C@H](CO)NC(=O)[C@H](CO)NC(=O)[C@H](CCCNC(=N)N)NC(=O)[C@H](CC(N)=O)NC(=O)[C@H](CC(C)C)NC(=O)[C@H](Cc1ccccc1)NC(=O)[C@H](Cc1c[nH]cn1)NC(=O)[C@H](C)NC(=O)[C@H](CC(C)C)NC(=O)[C@H](CCCNC(=N)N)NC(=O)[C@H](CCC(=O)O)NC(=O)[C@@H](NC(=O)[C@H](C)NC(=O)[C@@H]1CSSC[C@H](NC(=O)[C@H](CCCNC(=N)N)NC(=O)CC[C@H](NC(=O)CCCCCCCCCCCCCCCCCCC(=O)O)C(=O)O)C(=O)NCC(=O)N[C@@H]([C@@H](C)O)C(=O)N[C@@H](C)C(=O)N[C@@H]([C@@H](C)O)C(=O)N1)[C@@H](C)O [Compound 35, [19CD]-isoGlu-R-C( )-GTAT-C( )-ATERLAHFLNRSSF-Gly(Me)-A-Ile(Me)-LSSTEVGSSTP-NH2] ({C20 diacid-γGlu}-RCGTATCATERLAHFLNRSSF[Sar]A[NMeI]LSSTEVGSSTP-NH2; disulfide 2-7)
2 | 10.10 | 9.96 | FND | FND | FND | A (A = >90%) | B (B = 70-90%) | B (B = 70-90%) | B (B = 70-90%) | CC[C@H](C)[C@@H](C(=O)N[C@@H](CC(C)C)C(=O)N[C@@H](CO)C(=O)N[C@@H](CO)C(=O)N[C@H](C(=O)N[C@@H](CCC(=O)O)C(=O)N[C@H](C(=O)NCC(=O)N[C@@H](CO)C(=O)N[C@@H](CCCN)C(=O)N[C@H](C(=O)N1C[C@H](O)C[C@H]1C(N)=O)[C@@H](C)O)C(C)C)[C@@H](C)O)N(C)C(=O)[C@H](C)NC(=O)CN(C)C(=O)[C@H](Cc1ccccc1)NC(=O)[C@H](CO)NC(=O)[C@H](CO)NC(=O)[C@H](CCCNC(=N)N)NC(=O)[C@H](CCC(N)=O)NC(=O)[C@H](CC(C)C)NC(=O)[C@H](Cc1ccccc1)NC(=O)[C@H](Cc1c[nH]cn1)NC(=O)[C@H](C)NC(=O)[C@H](CC(C)C)NC(=O)[C@H](CCCNC(=N)N)NC(=O)[C@H](CCC(=O)O)NC(=O)[C@@H](NC(=O)[C@H](C)NC(=O)[C@@H]1CSSC[C@H](NC(=O)[C@H](CCCNC(=N)N)NC(=O)CC[C@H](NC(=O)CCCCCCCCCCCCCCCCCCC(=O)O)C(=O)O)C(=O)NCC(=O)N[C@@H]([C@@H](C)O)C(=O)N[C@@H](C)C(=O)N[C@@H]([C@@H](C)O)C(=O)N1)[C@@H](C)O [Compound 51, [19CD]-isoGlu-R-C( )-GTAT-C( )-ATERLAHFLQRSSF-Gly(Me)-A-Ile(Me)-LSSTEVGS-Orn-T-Hyp-NH2] ({C20 diacid-γGlu}-RCGTATCATERLAHFLQRSSF[Sar]A[NMeI]LSSTEVGS[Orn]T[Hyp]-NH2; disulfide 2-7)
3 | 10.15 | 10.05 | FND | FND | FND | A (A = >90%) | B (B = 70-90%) | B (B = 70-90%) | B (B = 70-90%) | CC[C@H](C)[C@@H](C(=O)N[C@@H](CC(C)C)C(=O)N[C@@H](CO)C(=O)N[C@@H](CO)C(=O)N[C@H](C(=O)N[C@@H](CCC(=O)O)C(=O)N[C@H](C(=O)NCC(=O)N[C@@H](CO)C(=O)NCC(=O)N[C@H](C(=O)N1C[C@H](O)C[C@H]1C(N)=O)[C@@H](C)O)C(C)C)[C@@H](C)O)N(C)C(=O)[C@H](C)NC(=O)CN(C)C(=O)[C@H](Cc1ccccc1)NC(=O)[C@H](CO)NC(=O)[C@H](CO)NC(=O)[C@H](CCCNC(=N)N)NC(=O)[C@H](CCC(N)=O)NC(=O)[C@H](CC(C)C)NC(=O)[C@H](Cc1ccccc1)NC(=O)[C@H](Cc1c[nH]cn1)NC(=O)[C@H](C)NC(=O)[C@H](CC(C)C)NC(=O)[C@H](CCCNC(=N)N)NC(=O)[C@H](CCC(=O)O)NC(=O)[C@@H](NC(=O)[C@H](C)NC(=O)[C@@H]1CSSC[C@H](NC(=O)[C@H](CCCNC(=N)N)NC(=O)CC[C@H](NC(=O)CCCCCCCCCCCCCCCCCCC(=O)O)C(=O)O)C(=O)NCC(=O)N[C@@H]([C@@H](C)O)C(=O)N[C@@H](C)C(=O)N[C@@H]([C@@H](C)O)C(=O)N1)[C@@H](C)O [Compound 52, [19CD]-isoGlu-R-C( )-GTAT-C( )-ATERLAHFLQRSSF-Gly(Me)-A-Ile(Me)-LSSTEVGSGT-Hyp-NH2] ({C20 diacid-γGlu}-RCGTATCATERLAHFLQRSSF[Sar]A[NMeI]LSSTEVGSGT[Hyp]-NH2; disulfide 2-7)
4 | 9.85 | 9.89 | FND | FND | FND | A (A = >90%) | A (A = >90%) | B (B = 70-90%) | B (B = 70-90%) | CC[C@H](C)[C@@H](C(=O)N[C@@H](CC(C)C)C(=O)N[C@@H](CO)C(=O)N[C@@H](CO)C(=O)N[C@H](C(=O)N[C@@H](CCC(=O)O)C(=O)N[C@H](C(=O)NCC(=O)N[C@@H](CO)C(=O)N[C@@H](CCCC(=O)O)C(=O)N[C@H](C(=O)N1C[C@H](O)C[C@H]1C(N)=O)[C@@H](C)O)C(C)C)[C@@H](C)O)N(C)C(=O)[C@H](C)NC(=O)CN(C)C(=O)[C@H](Cc1ccccc1)NC(=O)[C@H](CO)NC(=O)[C@H](CO)NC(=O)[C@H](CCCNC(=N)N)NC(=O)[C@H](CCC(N)=O)NC(=O)[C@H](CC(C)C)NC(=O)[C@H](Cc1ccccc1)NC(=O)[C@H](Cc1c[nH]cn1)NC(=O)[C@H](C)NC(=O)[C@H](CC(C)C)NC(=O)[C@H](CCCNC(=N)N)NC(=O)[C@H](CCC(=O)O)NC(=O)[C@@H](NC(=O)[C@H](C)NC(=O)[C@@H]1CSSC[C@H](NC(=O)[C@H](CCCNC(=N)N)NC(=O)CC[C@H](NC(=O)CCCCCCCCCCCCCCCCCCC(=O)O)C(=O)O)C(=O)NCC(=O)N[C@@H]([C@@H](C)O)C(=O)N[C@@H](C)C(=O)N[C@@H]([C@@H](C)O)C(=O)N1)[C@@H](C)O [Compound 53, [19CD]-isoGlu-R-C( )-GTAT-C( )-ATERLAHFLQRSSF-Gly(Me)-A-Ile(Me)-LSSTEVGS-Aad-T-Hyp-NH2] ({C20 diacid-γGlu}-RCGTATCATERLAHFLQRSSF[Sar]A[NMeI]LSSTEVGS[Aad]T[Hyp]-NH2; disulfide 2-7)
